Reference: patent US20090318423A1, “Ion Channel Modulators & Uses Thereof” (LECTUS THERAPEUTICS LIMITED, priority 2006, published 2009)

Target: T1, Kv1.1 alpha subunit T1 domain binding to Kvbeta1 subunits (Rattus norvegicus, UniProt P63144)
T1 construct: expression of Kv1.1 alpha subunit T1 domains in E. coli; His; made in house; host or cells: E. coli (cleared lysates)
T1 sequence (P63144 1-401): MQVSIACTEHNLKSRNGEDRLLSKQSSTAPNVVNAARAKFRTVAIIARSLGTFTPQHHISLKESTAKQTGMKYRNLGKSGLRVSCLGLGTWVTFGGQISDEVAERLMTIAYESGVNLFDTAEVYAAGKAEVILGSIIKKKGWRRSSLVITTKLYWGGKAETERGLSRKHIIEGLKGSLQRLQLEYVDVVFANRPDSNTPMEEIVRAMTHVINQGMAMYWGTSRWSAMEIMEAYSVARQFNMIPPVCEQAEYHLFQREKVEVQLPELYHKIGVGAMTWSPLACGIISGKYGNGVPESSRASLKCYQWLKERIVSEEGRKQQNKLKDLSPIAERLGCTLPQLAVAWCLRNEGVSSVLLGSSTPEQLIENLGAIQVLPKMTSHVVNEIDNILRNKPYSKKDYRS
Assay: Kv1.x T1 / Kvbeta subunit protein-protein interaction assay (ELISA)
Conditions: His-/FLAG-tagged Kv1.1 T1 domain lysate; biotin-tagged Kvbeta1 immobilised on streptavidin plates; anti-FLAG/HRP ELISA detection; read-out: IC50 for inhibition of Kv1.1 alpha subunit T1 binding to Kvbeta1 subunits
Description: Compounds of Examples 3, 13-15 and 18-22 and 24-26 were examined for their ability to inhibit the interaction between Kv1.x channels and Kvbeta subunits using a protein-protein interaction assay.
Cloning of rat His- and biotin-tagged Kvbeta1 subunit cDNA, expression of Kvbeta1 subunits in E. coli and lysis of E. coli containing Kvbeta1 subunits were carried out as previously described (Kozlowski et al., patent application WO03078464).
Cloning of His- and FLAG-tagged Kv1.1 alpha subunit T1 domain cDNA, expression of Kv1.1 alpha subunit T1 domains in E. coli and lysis of E. coli containing Kv1.1 alpha subunit T1 domains were carried out as previously described (Kozlowski et al., patent application WO03078464).
To 96-well streptavidin coated microtitre plates, 100 μl of optimized concentrations of Kvbeta1 subunit cleared lysates (typically 1 in 10 dilutions in PBS-Tween) were added to each well. Plates were incubated at room temperature for 1 hour prior to use. Each well was then washed 3 times with 300 μl of PBS-Tween. Following the final wash, 80 μl of PBS-Tween was added to each well.
The test compounds (dissolved in a suitable vehicle) were added to the wells of a prepared 96-well microliter plate to achieve a range of concentrations to maintain a final assay volume of 100 μl. Plates were incubated for 30 minutes at room temperature.
After incubation with test compounds, 100 μl of Kv1.1 alpha subunit T1 domain cleared lysate (diluted 1 in 10 in PBS-Tween) was added to each well and incubated for 60 minutes at room temperature on a shaker. Unbound Kv1.1 alpha subunit T1 domain was removed by washing 3 times in 300 μl of PBS-Tween. Bound Kv1.1 alpha subunit T1 domain was estimated by using appropriately diluted mouse anti-FLAG antibody and anti-mouse IgG secondary antibody HRP conjugate using standard ELISA procedures. HRP was detected as previously described (Kozlowski et al., patent application WO03078464).
Data were analyzed using standard software packages. The test compounds were examined for their ability to inhibit the binding of Kv1.1 alpha subunit T1 domain to Kvbeta1 subunits to determine inhibition as a percentage of maximal binding in the absence of any test compound. Results are presented as the half maximal inhibitory concentration (IC50) for inhibition of Kv1.1 alpha subunit T1 binding to Kvbeta1 subunits.

IC50	Compound
38 µM	COc1ccc(S(=O)(=O)NC(=O)Nc2ccc3c(c2)CCN(C(=O)NS(=O)(=O)c2ccc(OC)cc2)CC3)cc1 [Example 21, N-[(4-Methoxyphenyl)sulfonyl]-7-({[(4-methoxyphenyl)sulfonyl]-carbamoyl}amino)-1,2,4,5-tetrahydro-3H-3-benzazepine-3-carboxamide]
191 µM	O=C(Nc1ccc2c(c1)CCN(C(=O)NS(=O)(=O)c1ccc(F)cc1)CC2)NS(=O)(=O)c1ccc(F)cc1 [Example 20, N-[(4-Fluorophenyl)sulfonyl]-7-({[(4-fluorophenyl)sulfonyl]carbamoyl}amino)-1,2,4,5-tetrahydro-3H-3-benzazepine-3-carboxamide]
41 µM	CC(C)(C)c1ccc(S(=O)(=O)NC(=O)Nc2ccc3c(c2)CCN(C(=O)NS(=O)(=O)c2ccc(C(C)(C)C)cc2)CC3)cc1 [Example 22, N-[(4-tert-Butylphenyl)sulfonyl]-7-({[(4-tert-butylphenyl)sulfonyl]carbamoyl}-amino)-1,2,4,5-tetrahydro-3H-3-benzazepine-3-carboxamide]
88 µM	Cc1ccc(S(=O)(=O)NC(=O)N2CCc3ccc(NS(=O)(=O)c4ccc(-c5ccccc5)cc4)cc3CC2)cc1 [Example 25, N-[(4-Methylphenyl)sulfonyl]-7-([(4-biphenyl)sulfonyl]amino)-1,2,4,5-tetrahydro-3H-3-benzazepine-3-carboxamide]
50 µM	N-benzylaminocarbonyl-7-[({[(4-methylphenyl)sulfonyl]amino}carbonyl)amino]-1,2,4,5-tetrahydro-3H-3-benzazepine-3-carboxamide [Example 3]
81 µM	Cc1ccc(S(=O)(=O)NC(=O)N2CCc3ccc(NS(=O)(=O)c4ccc(C)cc4)cc3CC2)cc1 [Example 24, N-[(4-Methylphenyl)sulfonyl]-7-([(4-methylphenyl)sulfonyl]amino)-1,2,4,5-tetrahydro-3H-3-benzazepine-3-carboxamide]
16 µM	Cc1ccc(S(=O)(=O)NC(=O)Nc2ccc3c(c2)CN(C(=O)NS(=O)(=O)c2ccc(C)cc2)C3)cc1 [Example 14, N-[(4-methylphenyl)sulfonyl]-5-[({[(4-methylphenyl)sulfonyl]amino}carbonyl)amino]-1,3-dihydro-2H-isoindole-2-carboxamide]
181 µM	O=C(Nc1ccc2c(c1)CCN(C(=O)NS(=O)(=O)c1ccccc1Cl)CC2)NS(=O)(=O)c1ccccc1Cl [Example 18, N-[(2-Chlorophenyl)sulfonyl]-7-({[(2-chlorophenyl)sulfonyl]carbamoyl}amino)-1,2,4,5-tetrahydro-3H-3-benzazepine-3-carboxamide]
47 µM	Cc1cccc(S(=O)(=O)NC(=O)Nc2ccc3c(c2)CCN(C(=O)NS(=O)(=O)c2cccc(C)c2)CC3)c1 [Example 17, N-[(3-Methylphenyl)sulfonyl]-7-({[(3-methylphenyl)sulfonyl]carbamoyl}amino)-1,2,4,5-tetrahydro-3H-3-benzazepine-3-carboxamide]
51 µM	O=C(Nc1ccc2c(c1)CCN(C(=O)NS(=O)(=O)c1ccc(Cl)cc1)CC2)NS(=O)(=O)c1ccc(Cl)cc1 [Example 19, N-[(4-Chlorophenyl)sulfonyl]-7-({[(4-chlorophenyl)sulfonyl]carbamoyl}amino)-1,2,4,5-tetrahydro-3H-3-benzazepine-3-carboxamide]
30 µM	Cc1ccc(S(=O)(=O)NC(=O)Nc2ccc3c(c2)CCN(C(=O)NS(=O)(=O)c2ccc(C)cc2)C3)cc1 [Example 13, N-[(4-methylphenyl)sulfonyl]-6-({[(4-methylphenyl)sulfonyl]-carbamoyl}amino)-3,4-dihydroisoquinoline-2(1H)-carboxamide]
59 µM	Cc1ccc(S(=O)(=O)NC(=O)Nc2ccc3c(c2)CCN(C(=O)NS(=O)(=O)c2ccc(C)cc2)CC3)cc1 [Example 15, N-[(4-Methylphenyl)sulfonyl]-7-({[(4-methylphenyl)sulfonyl]carbamoyl}amino)-1,2,4,5-tetrahydro-3H-3-benzazepine-3-carboxamide]
